# Assays:
# [1] = target: T1, human full length PIK3KA H1047R mutant (p110α/p85α complex) (Homo sapiens, UniProt P42336, H1047R); experiment: PI3K-alpha kinase (PIK3CA) biochemical activity, H1047R mutant, ADP-Glo; settings: PI3K-α (PIK3CA) biochemical, H1047R mutant, Soy PI lipid substrate
# T1 construct: Recombinant, catalytically active human full length PIK3KA Wild-type and H1047R mutant were purchased as 1:1 complex; 6xHis (N); purchased EMD Millipore Sigma 14-792M
# Summary of the method: (§1)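 Full-length His-p110α/p85α complex, wild-type or H1047R, 1–5 nM, preincubated with compound 1 h at 27 °C in HEPES pH 7.4, 25 mM MgCl2, 0.01% Triton X-100, 1% DMSO. Reaction with 20 μM ATP and 50 μM PIP2diC8 or soy PI at 27 °C to ~10% ATP conversion; ADP-Glo luminescence. IC50 from 10-point four-parameter logistic fit.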
# [2] = tested on: PI3K-α (PIK3CA) in MDA-MB-453 cells; experiment: PI3K-alpha kinase (PIK3CA) activity in vitro cell based assay, MDA-MB-453 cells, AlphaLisa SureFire; settings: 0% FBS, 3 hours treatment, relative IC50
# Summary of the method: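 MDA-MB-453 cells in serum-free MEM with 1 μg/mL insulin treated 3 h with 10-point 1:3 compound dilutions, 0.3% DMSO. Lysates read by AlphaLisa SureFire; percent inhibition relative to DMSO (max) and 1 μM GDC-0032 (min), duplicate means fitted to 4-parameter logistic for relative IC50.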
# [3] = target: T2, human full length PIK3KA Wild-type (p110α/p85α complex) (Homo sapiens, UniProt P42336); experiment: PI3K-alpha kinase (PIK3CA) biochemical activity, wild-type, ADP-Glo; settings: PI3K-α (PIK3CA) biochemical, Soy PI lipid substrate
# T2 construct: Recombinant, catalytically active human full length PIK3KA Wild-type and H1047R mutant were purchased as 1:1 complex; 6xHis (N); purchased EMD Millipore Sigma 14-602M
# Summary of the method: as §1
# T1 sequence (P42336 whole entry H1047R): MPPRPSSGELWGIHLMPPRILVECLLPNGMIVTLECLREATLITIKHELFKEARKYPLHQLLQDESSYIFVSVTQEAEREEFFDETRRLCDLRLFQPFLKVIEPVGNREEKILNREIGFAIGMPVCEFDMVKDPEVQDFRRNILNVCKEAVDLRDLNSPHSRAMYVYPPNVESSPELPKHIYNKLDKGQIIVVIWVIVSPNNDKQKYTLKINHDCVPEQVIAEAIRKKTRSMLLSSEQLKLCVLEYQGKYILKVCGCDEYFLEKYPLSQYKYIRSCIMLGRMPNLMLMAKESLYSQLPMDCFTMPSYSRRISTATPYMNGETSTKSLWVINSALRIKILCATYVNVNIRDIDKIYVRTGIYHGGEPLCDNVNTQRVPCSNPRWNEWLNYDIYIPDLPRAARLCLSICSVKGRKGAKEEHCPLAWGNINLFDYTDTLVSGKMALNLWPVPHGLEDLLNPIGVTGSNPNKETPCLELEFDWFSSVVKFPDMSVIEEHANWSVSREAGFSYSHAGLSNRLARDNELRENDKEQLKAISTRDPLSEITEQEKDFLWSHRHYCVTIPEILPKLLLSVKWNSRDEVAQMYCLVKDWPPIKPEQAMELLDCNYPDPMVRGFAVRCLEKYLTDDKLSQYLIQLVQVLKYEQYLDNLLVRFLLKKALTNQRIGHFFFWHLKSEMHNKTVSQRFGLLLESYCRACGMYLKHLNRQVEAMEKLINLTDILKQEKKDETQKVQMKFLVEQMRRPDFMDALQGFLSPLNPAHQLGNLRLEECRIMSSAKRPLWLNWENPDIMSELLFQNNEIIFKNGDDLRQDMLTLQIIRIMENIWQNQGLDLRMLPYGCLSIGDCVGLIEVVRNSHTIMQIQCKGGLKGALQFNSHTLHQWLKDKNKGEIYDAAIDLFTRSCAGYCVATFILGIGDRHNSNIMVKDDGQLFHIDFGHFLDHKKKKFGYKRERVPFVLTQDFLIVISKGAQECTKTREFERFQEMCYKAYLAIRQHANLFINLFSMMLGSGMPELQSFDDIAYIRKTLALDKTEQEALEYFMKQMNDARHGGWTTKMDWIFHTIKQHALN
# T1 sequence (P27986 whole entry partner): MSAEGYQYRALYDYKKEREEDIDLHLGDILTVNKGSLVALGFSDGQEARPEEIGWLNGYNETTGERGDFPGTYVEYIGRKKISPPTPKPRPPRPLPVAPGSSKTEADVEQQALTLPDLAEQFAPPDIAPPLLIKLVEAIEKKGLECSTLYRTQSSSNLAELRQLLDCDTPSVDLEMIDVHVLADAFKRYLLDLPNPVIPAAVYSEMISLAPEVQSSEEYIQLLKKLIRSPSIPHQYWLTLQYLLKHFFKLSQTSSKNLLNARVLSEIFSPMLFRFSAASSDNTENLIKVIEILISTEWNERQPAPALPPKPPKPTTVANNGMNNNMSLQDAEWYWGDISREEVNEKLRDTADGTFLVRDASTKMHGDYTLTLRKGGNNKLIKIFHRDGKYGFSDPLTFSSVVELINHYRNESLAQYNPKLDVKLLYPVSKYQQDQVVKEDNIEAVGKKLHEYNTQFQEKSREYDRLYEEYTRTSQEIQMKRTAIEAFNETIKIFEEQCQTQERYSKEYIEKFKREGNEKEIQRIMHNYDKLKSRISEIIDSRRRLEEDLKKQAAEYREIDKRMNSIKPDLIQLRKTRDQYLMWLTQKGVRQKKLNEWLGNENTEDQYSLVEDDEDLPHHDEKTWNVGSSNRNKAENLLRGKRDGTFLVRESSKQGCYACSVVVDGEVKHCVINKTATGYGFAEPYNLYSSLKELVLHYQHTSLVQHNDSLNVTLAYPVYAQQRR
Structure (SMILES),IC50 [1] [nM],"IC50 ([2]; Homo sapiens, MDA-MB-453, 3 h) [nM]",IC50 [3] [nM],IC50 [2] [nM]
"Cc1cc([C@@H](C)Nc2ccc(C(F)(F)F)cc2C(=O)O)c2oc(-c3ccccc3)cc(=O)c2c1 [Example 33, 2-[[(1R)-1-(6-Methyl-4-oxo-2-phenyl-chromen-8-yl)ethyl]amino]-5-(trifluoromethyl)benzoic acid]",< 500,100 to 500,5000 to 10000,–
"Cc1cc([C@@H](C)Nc2cccc(F)c2C(=O)O)c2oc(-c3ccc(F)cc3F)c(C)c(=O)c2c1 [Example 130, 2-[[(1R)-1-[2-(2,4-Difluorophenyl)-3,6-dimethyl-4-oxo-chromen-8-yl]ethyl]amino]-6-fluoro-benzoic acid 2,2,2-trifluoroacetic acid]",< 500,< 50,1000 to 5000,–
"Cc1cc([C@@H](C)Nc2ccccc2C(=O)O)c2oc(-c3ccccc3C#N)cc(=O)c2c1 [Example 15, 2-[[(1R)-1-[2-(2-Cyanophenyl)-6-methyl-4-oxo-chromen-8-yl]ethyl]amino]benzoic acid]",< 500,< 50,5000 to 10000,–
"Cc1cc([C@@H](C)Nc2ccccc2C(=O)O)c2oc(-c3ccc(-c4cn[nH]c4)cc3)cc(=O)c2c1 [Example 163, 2-[[(1R)-1-[6-Methyl-4-oxo-2-[4-(1H-pyrazol-4-yl)phenyl]chromen-8-yl]ethyl]amino]benzoic acid]",500 to 1000,50 to 100,1000 to 5000,–
"Cc1cc([C@@H](C)Nc2ccc(F)c(F)c2C(=O)O)c2oc(-c3ccccc3)c(C)c(=O)c2c1 [Example 38, 6-[[(1R)-1-(3,6-Dimethyl-4-oxo-2-phenyl-chromen-8-yl)ethyl]amino]-2,3-difluoro-benzoic acid]",< 500,< 50,< 500,–
Cc1cc([C@@H](C)Nc2ccccc2C(=O)O)c2oc(-c3ccc(C(C)(C)C#N)cc3)cc(=O)c2c1 [Example 25],< 500,50 to 100,1000 to 5000,–
"Cc1cc([C@@H](C)Nc2cccnc2C(=O)O)c2oc(-c3ccccc3)c(C)c(=O)c2c1 [Example 36, 3-[[(1R)-1-(3,6-Dimethyl-4-oxo-2-phenyl-chromen-8-yl)ethyl]amino]-pyridine-2-carboxylic acid]",500 to 1000,50 to 100,5000 to 10000,–
"Cc1cc([C@@H](C)Nc2ccc(Cl)cc2C(=O)O)c2oc(-c3cccc(F)c3)c(C)c(=O)c2c1 [Example 145, 5-Chloro-2-[[(1R)-1-[2-(3-fluorophenyl)-3,6-dimethyl-4-oxo-chromen-8-yl]ethyl]amino]benzoic acid]",< 500,< 50,1000 to 5000,–
"Cc1cc(C(C)Nc2ccccc2C(=O)O)c2oc(-c3ccccc3)c(F)c(=O)c2c1 (stereo not drawn) [Example 111, 2-[1-(3-Fluoro-6-methyl-4-oxo-2-phenyl-chromen-8-yl)ethylamino]benzoic acid 2,2,2-trifluoroacetic acid]",< 500,< 50,1000 to 5000,–
"Cc1cc([C@@H](C)Nc2ccccc2C(=O)O)c2oc(-c3ccc(F)c(F)c3)c(C)c(=O)c2c1 [Example 78, 2-[[(1R)-1-[2-(3,4-Difluorophenyl)-3,6-dimethyl-4-oxo-chromen-8-yl]ethyl]amino]benzoic acid 2,2,2-trifluoroacetic acid]",< 500,< 50,1000 to 5000,–

# Next, values leading:
IC50 [1] [nM],"IC50 ([2]; Homo sapiens, MDA-MB-453, 3 h) [nM]",IC50 [3] [nM],IC50 [2] [nM],Structure (SMILES)
< 500,< 50,1000 to 5000,–,"Cc1cc([C@@H](C)Nc2ccccc2C(=O)O)c2oc(-c3ccc(-c4c(C)n[nH]c4C)cc3)c(C)c(=O)c2c1 [Example 165, 2-[[(1R)-1-[2-[4-(3,5-Dimethyl-1H-pyrazol-4-yl)phenyl]-3,6-dimethyl-4-oxo-chromen-8-yl]ethyl]amino]benzoic acid]"
< 500,> 500,5000 to 10000,–,"Cc1c(-c2ccccc2)oc2c([C@@H](C)Nc3ccccc3C(=O)O)cc(F)cc2c1=O [Example 84, 2-[[(1R)-1-(6-Fluoro-3-methyl-4-oxo-2-phenyl-chromen-8-yl)ethyl]amino]benzoic acid 2,2,2-trifluoroacetic acid]"
< 500,< 50,5000 to 10000,–,"Cc1cc([C@@H](C)Nc2ccc(C)nc2C(=O)O)c2oc(-c3cccc(F)c3)c(C)c(=O)c2c1 [Example 134, 3-[[(1R)-1-[2-(3-Fluorophenyl)-3,6-dimethyl-4-oxo-chromen-8-yl]ethyl]amino]-6-methyl-pyridine-2-carboxylic acid]"
< 500,< 50,1000 to 5000,–,"COC(=O)c1ccc(-c2oc3c([C@@H](C)Nc4ccccc4C(=O)O)cc(C)cc3c(=O)c2C)cc1 [Example 149, 2-[[(1R)-1-[2-(4-Methoxycarbonylphenyl)-3,6-dimethyl-4-oxo-chromen-8-yl]ethyl]amino]benzoic acid]"
< 500,< 50,500 to 1000,–,"Cc1c(-c2ccc(F)cc2F)oc2c([C@@H](C)Nc3ccc(Cl)nc3C(=O)O)cc(C(F)(F)F)cc2c1=O [Example 99, 6-Chloro-3-[[(1R)-1-[2-(2,4-difluorophenyl)-3-methyl-4-oxo-6-(trifluoromethyl)-chromen-8-yl]ethyl]amino]pyridine-2-carboxylic acid]"
500 to 1000,< 50,1000 to 5000,–,"Cc1cc([C@@H](C)Nc2ccc(Cl)cc2C(=O)O)c2oc(-c3ccccc3F)c(C)c(=O)c2c1 [Example 147, 5-Chloro-2-[[(1R)-1-[2-(2-fluorophenyl)-3,6-dimethyl-4-oxo-chromen-8-yl]ethyl]amino]benzoic acid]"
1000 to 5000,< 50,1000 to 5000,–,"Cc1cc([C@@H](C)Nc2ccc(Cl)cc2C(=O)O)c2oc(-c3ccc(F)c(F)c3)c(C)c(=O)c2c1 [Example 146, 5-Chloro-2-[[(1R)-1-[2-(3,4-difluorophenyl)-3,6-dimethyl-4-oxo-chromen-8-yl]ethyl]amino]benzoic acid]"
5000 to 10000,> 500,> 10000,–,"Cc1cc(C(C)Nc2ccccc2C(=O)O)c2oc(-c3ccc(C(=O)N(C)C)cc3)cc(=O)c2c1 (single isomer, unassigned; isomer 2) [Example 50, 2-[1-[2-[4-(Dimethylcarbamoyl)-phenyl]-6-methyl-4-oxo-chromen-8-yl]ethylamino]benzoic acid, Isomer 2]"
< 500,< 50,< 500,–,"Cc1cc(C(C)Nc2ccccc2C(=O)O)c2oc(-c3ccccc3)c(C#N)c(=O)c2c1 (single isomer, unassigned; isomer 2) [Example 62, 2-[1-(3-Cyano-6-methyl-4-oxo-2-phenyl-chromen-8-yl)ethylamino]benzoic acid, Isomer 2]"
< 500,< 50,< 500,–,"Cc1cc([C@@H](C)Nc2ccc(Cl)nc2C(=O)O)c2oc(-c3cccc(C#N)c3)c(C)c(=O)c2c1 [Example 115, 6-Chloro-3-[[(1R)-1-[2-(3-cyanophenyl)-3,6-dimethyl-4-oxo-chromen-8-yl]ethyl]amino]pyridine-2-carboxylic acid 2,2,2-trifluoroacetic acid]"
5000 to 10000,–,5000 to 10000,> 500,"Cc1cc([C@@H](C)Nc2ccc(C#N)cc2C(=O)O)c2oc(-c3ccccc3)c(C)c(=O)c2c1 (single isomer, unassigned; isomer 1) [Example 157]"
< 500,–,1000 to 5000,50 to 100,"Cc1cc(C(C)Nc2ccccc2C(=O)O)c2oc(-c3ccccc3)c(F)c(=O)c2c1 (single isomer, unassigned; isomer 2) [Example 133, 2-[1-(3-Fluoro-6-methyl-4-oxo-2-phenyl-chromen-8-yl)ethylamino]benzoic acid, Isomer 2]"
< 500,< 50,1000 to 5000,–,"Cc1cc([C@@H](C)Nc2ccc(C)nc2C(=O)O)c2oc(-c3ccccc3)c(C)c(=O)c2c1 [Example 39, 3-[[(1R)-1-(3,6-Dimethyl-4-oxo-2-phenyl-chromen-8-yl)ethyl]amino]-6-methyl-pyridine-2-carboxylic acid]"
< 500,< 50,< 500,–,"Cc1cc([C@@H](C)Nc2ccc(F)cc2C(=O)O)c2oc(-c3cccc(C#N)c3)c(C)c(=O)c2c1 [Example 129, 2-[[(1R)-1-[2-(3-Cyanophenyl)-3,6-dimethyl-4-oxo-chromen-8-yl]ethyl]amino]-5-fluoro-benzoic acid]"

# — patent US11873295B2, “Allosteric chromenone inhibitors of phosphoinositide 3-kinase (PI3K) for the treatment of disease” (Petra Pharma Corporation, priority 2021, dated 2024)
